The source of these data is patent publication US9682980B2, “Positive allosteric modulators of mGluR2” (BRISTOL-MYERS SQUIBB COMPANY, priority 2012, dated 2017).

The target of this assay is human mGluR2 (Homo sapiens (Human), UniProt Q14416). Nature of the assay: MGluR2 cAMP assay. The conditions noted are these: HEK293 cells clonally expressing human mGluR2, 1 μM forskolin, 1 μM LY-341495. Type of assay: cell-based. The protocol: Clonally expressed human mGluR2 in HEK293 background was glutamate starved overnight in media without glutamine (GIBCO MEM 12360), containing 10% FBS, 1% penicillin streptomycin.
human mGluR2, sequence (Q14416 19-872): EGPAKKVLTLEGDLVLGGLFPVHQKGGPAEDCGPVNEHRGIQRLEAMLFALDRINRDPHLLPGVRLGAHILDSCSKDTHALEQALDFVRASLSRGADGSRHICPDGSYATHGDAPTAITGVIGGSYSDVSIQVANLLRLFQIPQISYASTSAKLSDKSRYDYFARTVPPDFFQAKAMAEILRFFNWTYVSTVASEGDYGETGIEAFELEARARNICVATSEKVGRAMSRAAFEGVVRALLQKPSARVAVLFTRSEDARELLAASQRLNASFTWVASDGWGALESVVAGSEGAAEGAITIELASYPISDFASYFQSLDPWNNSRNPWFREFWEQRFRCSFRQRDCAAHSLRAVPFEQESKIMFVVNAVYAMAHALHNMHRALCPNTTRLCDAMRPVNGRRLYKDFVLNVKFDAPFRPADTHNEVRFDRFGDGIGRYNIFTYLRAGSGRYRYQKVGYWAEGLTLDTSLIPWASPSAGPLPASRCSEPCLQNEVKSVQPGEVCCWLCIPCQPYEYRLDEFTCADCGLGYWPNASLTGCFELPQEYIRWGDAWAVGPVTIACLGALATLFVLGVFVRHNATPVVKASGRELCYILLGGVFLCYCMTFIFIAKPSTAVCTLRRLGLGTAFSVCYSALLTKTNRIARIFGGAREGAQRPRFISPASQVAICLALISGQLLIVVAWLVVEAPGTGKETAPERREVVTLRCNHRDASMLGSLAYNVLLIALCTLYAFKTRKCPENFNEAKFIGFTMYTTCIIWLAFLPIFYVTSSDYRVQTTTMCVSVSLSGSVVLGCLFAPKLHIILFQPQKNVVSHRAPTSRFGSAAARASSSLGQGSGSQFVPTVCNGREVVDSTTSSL
On the day of the assay, media was removed, cells washed with PBS, cells harvested and pelleted by centrifugation. Cell pellets were resuspended in stimulation buffer without forskolin and counted. A solution of 1.25×10^6 cells/ml was prepared and dispensed to plates using a Combi liquid handler (Thermo). A standard curve was created using a top concentration of cAMP of 1 μM in the stimulation buffer, 1:3 dilutions over 14 points in the absence of cells. Plates were read by time-resolved fluorescence at […] and a ratio was calculated via in house software, (665 nM/618 nM)*10^4. In house software converted the fluorescence value ratios to units of cAMP concentration, which is then used to calculate % inhibition for each test compound.
Compounds were added to white, standard volume 384 non-binding surface plates (Corning 3574). Cells were resuspended in stimulation buffer consisting of Hanks Balanced Salt Solution (14175-095) pH 7.0, 20 mM HEPES, 2.0 mM CaCl2, 5.0 mM MgCl2, and 1 mM IBMX (Sigma 15879), 1 μM forskolin, and 1 μM LY-341495, for 30 minutes. Buffer without forskolin was used as a negative control. Solutions of D2 and cryptate detection reagents from the CISBIO dynamic cAMP kit (62AM4PEJ) were diluted 1:40 in lysis buffer. Lysis buffer consisted of 50 mM Phosphate Buffer pH 7.0, 800 mM Potassium Fluoride, 0.2% BSA, and 1.0% Triton. Assay reaction was terminated by addition of detection reagents in lysis buffer. One hour later, plates were read on a PE Viewlux. Data was extracted, and concentration response curves generated by fitting the data to a standard 4 parameter logistic equation from which EC50 values were determined See table 1: A: <10 nM; B: 10-100 nM; C: 100-1000 nM; D: 1000-10000 nM.
A general note: cAMP levels reflect the balance of adenylyl cyclase and phosphodiesterase activity.
For `COc1c(N2CCC(O)(c3ccc(F)cc3)CC2)ncn2c(CC3CC3)nnc12` [Example 14, 1-(3-(Cyclopropylmethyl)-8-methoxy-[1,2,4]triazolo[4,3-c]pyrimidin-7-yl)-4-(4-fluorophenyl)piperidin-4-ol], the EC50 came to 782 nM. That is a sub-micromolar value.

In turn, `Clc1c(N2CCN(c3ncccn3)CC2)cnn2c(CC3CC3)nnc12` [Example 15, 8-Chloro-3-(cyclopropylmethyl)-7-(4-(pyrimidin-2-yl)piperazin-1-yl)-[1,2,4]triazolo[4,3-b]pyridazine] came in with an EC50 of 280 nM.

`CC(C)(C)Cc1nnc2c(Cl)c(N3CCN(c4ncccn4)CC3)cnn12` [Example 16, 8-Chloro-3-neopentyl-7-(4-(pyrimidin-2-yl)piperazin-1-yl)-[1,2,4]triazolo[4,3-b]pyridazine]: it took 437 nM to reach a half-maximal effect (EC50).

Molecule `Fc1ccc(C2CCN(c3cnn4c(CC5CC5)nnc4c3Cl)CC2)cc1` [Example 17, 8-Chloro-3-(cyclopropylmethyl)-7-(4-(4-fluorophenyl)piperidin-1-yl)-[1,2,4]triazolo[4,3-b]pyridazine] came in with an EC50 of 46 nM.

`CC(C)(C)Cc1nnc2c(Cl)c(N3CCC(c4ccc(F)cc4)CC3)cnn12` [Example 18, 8-Chloro-7-(4-(4-fluorophenyl)piperidin-1-yl)-3-neopentyl-[1,2,4]triazolo[4,3-b]pyridazine] displayed an EC50 of 145 nM. Against the preceding molecule, the EC50 is about 3.2-fold higher.

As for `Fc1ccc(N2CCN(c3cnn4c(CC5CC5)nnc4c3Cl)CC2)cc1` [Example 19, 8-Chloro-3-(cyclopropylmethyl)-7-(4-(4-fluorophenyl)piperazin-1-yl)-[1,2,4]triazolo[4,3-b]pyridazine], the response was half-maximal at 614 nM (EC50).

As to `Clc1c(N2CCC3(C=Cc4ccccc43)CC2)cnn2c(CC3CC3)nnc12` [Example 20, 8-Chloro-3-(cyclopropylmethyl)-7-(spiro[indene-1,4′-piperidin]-1′-yl)-[1,2,4]triazolo[4,3-b]pyridazine], the EC50 was found to be 145 nM.

`Clc1c(NCC2(COc3ccccc3)CC2)cnn2c(CC3CC3)nnc12` [Example 21, 8-Chloro-3-(cyclopropylmethyl)-N-((1-(phenoxymethyl)cyclopropyl)methyl)-[1,2,4]triazolo[4,3-b]pyridazin-7-amine] gave an EC50 of 2310 nM. Compared with the last molecule, the EC50 is about 16-fold higher.

The molecule `COc1cccc(F)c1C1CCN(c2cnn3c(CC4CC4)nnc3c2Cl)CC1` [Example 22, 8-Chloro-3-(cyclopropylmethyl)-7-(4-(2-fluoro-6-methoxyphenyl)piperidin-1-yl)-[1,2,4]triazolo[4,3-b]pyridazine] displayed an EC50 of 3 nM.

As for `Fc1ccccc1C1CCN(c2cnn3c(CC4CC4)nnc3c2Cl)CC1` [Example 23, 8-Chloro-3-(cyclopropylmethyl)-7-(4-(2-fluorophenyl)piperidin-1-yl)-[1,2,4]triazolo[4,3-b]pyridazine], the EC50 came to 13 nM.

`Fc1cccc(C2CCN(c3cnn4c(CC5CC5)nnc4c3Cl)CC2)c1` [Example 24, 8-Chloro-3-(cyclopropylmethyl)-7-(4-(3-fluorophenyl)piperidin-1-yl)-[1,2,4]triazolo[4,3-b]pyridazine] gave an EC50 of 25 nM.

For `Fc1ccccc1C1CCN(c2cnn3c(CC(F)(F)F)nnc3c2Cl)CC1` [Example 25, 8-Chloro-7-(4-(2-fluorophenyl)piperidin-1-yl)-3-(2,2,2-trifluoroethyl)-[1,2,4]triazolo[4,3-b]pyridazine], the response was half-maximal at 20 nM (EC50).

Take `COc1cccc(F)c1C1CCN(c2cnn3c(CC(F)(F)F)nnc3c2Cl)CC1` [Example 26, 8-Chloro-7-(4-(2-fluoro-6-methoxyphenyl)piperidin-1-yl)-3-(2,2,2-trifluoroethyl)-[1,2,4]triazolo[4,3-b]pyridazine]: the response was half-maximal at 2 nM (EC50).

`COc1ccccc1C1CCN(c2cnn3c(CC4CC4)nnc3c2Cl)CC1` [Example 27, 8-Chloro-3-(cyclopropylmethyl)-7-(4-(2-methoxyphenyl)piperidin-1-yl)-[1,2,4]triazolo[4,3-b]pyridazine] registered an EC50 of 9 nM.

By EC50 is commonly meant the concentration giving half of the maximal effect. Read a high EC50 as weaker potency.
